Laboratory results: PubChem BioAssay (NCI)
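Five concentrations, 48 hours, 96-well plates. Definition used: TGI = concentration required for complete inhibition of growth.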

Columns and labels:
Assay in all cases: NCI-60 cell line screen, 48 h
[1] = tested on: HCC-2998 colon
[2] = tested on: 786-0 renal
[3] = tested on: HCT-15 colon
[4] = tested on: HL-60(TB) leukemia
[5] = tested on: EKVX NSCLC
[6] = tested on: HOP-62 NSCLC
[7] = tested on: LOX IMVI melanoma
[8] = tested on: SW-620 colon
[9] = tested on: HOP-92 NSCLC
[10] = tested on: MDA-MB-435
[11] = tested on: TK-10 renal
[12] = tested on: ACHN renal
[13] = tested on: SNB-19 CNS
[14] = tested on: IGROV1 ovarian
[15] = tested on: HT29 colon
[16] = tested on: SK-OV-3 ovarian
[17] = tested on: UACC-257 melanoma
[18] = tested on: DU-145 prostate
[19] = tested on: SK-MEL-28 melanoma
[20] = tested on: NCI-H460 lung
[21] = tested on: SF-295 CNS
[22] = tested on: SK-MEL-2 melanoma
[23] = tested on: MDA-MB-231 breast
[24] = tested on: CAKI-1 renal
[25] = tested on: BT-549 breast
[26] = tested on: SK-MEL-5 melanoma
[27] = tested on: OVCAR-5 ovarian
[28] = tested on: NCI-H226 lung
[29] = tested on: U251 CNS
[30] = tested on: OVCAR-8 ovarian
[31] = tested on: KM12 colon
[32] = tested on: SNB-75 CNS
[33] = tested on: OVCAR-4 ovarian
[34] = tested on: MCF7 breast
[35] = tested on: A549 NSCLC
[36] = tested on: COLO 205 colon
[37] = tested on: M14 melanoma
[38] = tested on: HCT-116 colon
[39] = tested on: SF-539 CNS
[40] = tested on: NCI/ADR-RES ovarian
[41] = tested on: PC-3 prostate
[42] = tested on: NCI-H23 lung
[43] = tested on: OVCAR-3 ovarian
[44] = tested on: MOLT-4 leukemia
[45] = tested on: T-47D breast
[46] = tested on: SN12C renal
[47] = tested on: UO-31 renal
[48] = tested on: MDA-N
[49] = tested on: A498 renal
[50] = tested on: HS 578T breast
[51] = tested on: SF-268 CNS
[52] = tested on: UACC-62 melanoma
[53] = tested on: RXF 393 renal
[54] = tested on: CCRF-CEM leukemia
[55] = tested on: MALME-3M melanoma
[56] = tested on: RPMI-8226 leukemia
[57] = tested on: NCI-H522 lung
[58] = tested on: K-562 leukemia
[59] = tested on: SR leukemia

CC1=CC(=O)C(=CN2C(=O)/C(=C\c3cccnc3)NC2=S)C(=O)O1 was tested, and the TGI [1] was greater than 100 µM, the TGI [2] was greater than 100 µM and the TGI [3] was greater than 100 µM. For the same molecule, the TGI [4] was greater than 100 µM, the TGI [5] was greater than 100 µM and the TGI [6] was greater than 100 µM. It also gave a TGI [7] greater than 100 µM, a TGI [8] greater than 100 µM and a TGI [9] greater than 100 µM. For the same molecule, the TGI [10] was greater than 100 µM, the TGI [11] was greater than 100 µM and the TGI [12] was greater than 100 µM. The TGI [13] was greater than 100 µM, the TGI [14] was greater than 100 µM and the TGI [15] was greater than 100 µM. It also gave a TGI [16] greater than 100 µM, a TGI [17] greater than 100 µM and a TGI [18] greater than 100 µM. The TGI [19] was greater than 100 µM, the TGI [20] was greater than 100 µM and the TGI [21] was greater than 100 µM. The TGI [22] was greater than 100 µM, the TGI [23] was greater than 100 µM and the TGI [24] was greater than 100 µM. For the same molecule, the TGI [25] was greater than 100 µM, the TGI [26] was greater than 100 µM and the TGI [27] was greater than 100 µM. The TGI [28] was greater than 100 µM, the TGI [29] was greater than 100 µM and the TGI [30] was greater than 100 µM. It also gave a TGI [31] greater than 100 µM, a TGI [32] greater than 100 µM and a TGI [33] greater than 100 µM. It also gave a TGI [34] greater than 100 µM, a TGI [35] greater than 100 µM and a TGI [36] greater than 100 µM. For the same molecule, the TGI [37] was greater than 100 µM, the TGI [38] was greater than 100 µM and the TGI [39] was greater than 100 µM. It also gave a TGI [40] greater than 100 µM, a TGI [41] greater than 100 µM and a TGI [42] greater than 100 µM. For the same molecule, the TGI [43] was greater than 100 µM, the TGI [44] was greater than 100 µM and the TGI [45] was greater than 100 µM. It also gave a TGI [46] greater than 100 µM, a TGI [47] greater than 100 µM and a TGI [48] greater than 100 µM.
Work on C/C(=N/c1[nH]c(=O)cc2c1C(=O)CC2)N(C)C yielded a TGI [1] greater than 200 µM, a TGI [2] greater than 200 µM and a TGI [3] greater than 200 µM. It also gave a TGI [4] greater than 200 µM, a TGI [5] greater than 200 µM and a TGI [6] greater than 200 µM. It also gave a TGI [7] greater than 200 µM, a TGI [8] greater than 200 µM and a TGI [9] greater than 200 µM. It also gave a TGI [10] greater than 200 µM, a TGI [49] greater than 200 µM and a TGI [11] greater than 200 µM. The TGI [12] was greater than 200 µM, the TGI [13] was greater than 200 µM and the TGI [14] was greater than 200 µM. It also gave a TGI [15] greater than 200 µM, a TGI [16] greater than 200 µM and a TGI [17] greater than 200 µM. The TGI [18] was greater than 200 µM, the TGI [19] was greater than 200 µM and the TGI [20] was greater than 200 µM. For the same molecule, the TGI [50] was greater than 200 µM, the TGI [21] was greater than 200 µM and the TGI [22] was greater than 200 µM. The TGI [23] was greater than 200 µM, the TGI [51] was greater than 200 µM and the TGI [24] was greater than 200 µM. The TGI [52] was greater than 200 µM, the TGI [25] was greater than 200 µM and the TGI [53] was greater than 200 µM. For the same molecule, the TGI [26] was greater than 200 µM, the TGI [27] was greater than 200 µM and the TGI [28] was greater than 200 µM. For the same molecule, the TGI [29] was greater than 200 µM, the TGI [54] was greater than 200 µM and the TGI [30] was greater than 200 µM. The TGI [31] was greater than 200 µM, the TGI [32] was greater than 200 µM and the TGI [33] was greater than 200 µM. It also gave a TGI [34] greater than 200 µM, a TGI [55] greater than 200 µM and a TGI [56] greater than 200 µM. It also gave a TGI [35] greater than 200 µM, a TGI [36] greater than 200 µM and a TGI [57] greater than 200 µM. It also gave a TGI [37] greater than 200 µM, a TGI [38] greater than 200 µM and a TGI [39] greater than 200 µM. For the same molecule, the TGI [40] was greater than 200 µM, the TGI [41] was greater than 200 µM and the TGI [42] was greater than 200 µM. The TGI [43] was greater than 200 µM, the TGI [44] was greater than 200 µM and the TGI [45] was greater than 200 µM. The TGI [46] was greater than 200 µM, the TGI [47] was greater than 200 µM and the TGI [48] was greater than 200 µM. The TGI [58] was greater than 200 µM.
For CC(C)(C)OC(=O)CC(NC(=O)OC(C)(C)C)C(=O)NC(C(=O)O)C(O)c1ccccc1 (stereo not given), the TGI [1] was greater than 100 µM, the TGI [2] was greater than 100 µM and the TGI [3] was greater than 100 µM. For the same molecule, the TGI [5] was greater than 100 µM, the TGI [6] was greater than 100 µM and the TGI [7] was greater than 100 µM. It also gave a TGI [8] greater than 100 µM, a TGI [10] greater than 100 µM and a TGI [49] greater than 100 µM. It also gave a TGI [11] greater than 100 µM, a TGI [12] greater than 100 µM and a TGI [13] greater than 100 µM. The TGI [14] was greater than 100 µM, the TGI [15] was greater than 100 µM and the TGI [16] was greater than 100 µM. For the same molecule, the TGI [17] was greater than 100 µM, the TGI [18] was greater than 100 µM and the TGI [19] was greater than 100 µM. For the same molecule, the TGI [20] was greater than 100 µM, the TGI [50] was greater than 100 µM and the TGI [21] was greater than 100 µM. It also gave a TGI [22] greater than 100 µM, a TGI [23] greater than 100 µM and a TGI [51] greater than 100 µM. For the same molecule, the TGI [24] was greater than 100 µM, the TGI [52] was greater than 100 µM and the TGI [25] was greater than 100 µM. It also gave a TGI [53] greater than 100 µM, a TGI [26] greater than 100 µM and a TGI [27] greater than 100 µM. For the same molecule, the TGI [28] was greater than 100 µM, the TGI [29] was greater than 100 µM and the TGI [54] was greater than 100 µM. For the same molecule, the TGI [30] was greater than 100 µM, the TGI [31] was greater than 100 µM and the TGI [32] was greater than 100 µM. It also gave a TGI [33] greater than 100 µM, a TGI [34] greater than 100 µM and a TGI [55] greater than 100 µM. For the same molecule, the TGI [56] was greater than 100 µM, the TGI [35] was greater than 100 µM and the TGI [36] was greater than 100 µM. For the same molecule, the TGI [57] was greater than 100 µM, the TGI [37] was greater than 100 µM and the TGI [38] was greater than 100 µM. It also gave a TGI [39] greater than 100 µM, a TGI [40] greater than 100 µM and a TGI [41] greater than 100 µM. It also gave a TGI [42] greater than 100 µM, a TGI [43] greater than 100 µM and a TGI [44] greater than 100 µM. It also gave a TGI [45] greater than 100 µM, a TGI [47] greater than 100 µM and a TGI [48] greater than 100 µM. It also gave a TGI [58] greater than 100 µM.
For Cc1cn([C@H]2C[C@@H]3[C@@H](COC(CCl)N3O)O2)c(=O)[nH]c1=O (stereo not given in full), the TGI [2] was greater than 100 µM, the TGI [3] was greater than 100 µM and the TGI [4] was greater than 100 µM. It also gave a TGI [5] greater than 100 µM, a TGI [6] greater than 100 µM and a TGI [7] greater than 100 µM. The TGI [8] was greater than 100 µM, the TGI [10] was greater than 100 µM and the TGI [49] was greater than 100 µM. The TGI [11] was greater than 100 µM, the TGI [13] was greater than 100 µM and the TGI [14] was greater than 100 µM. It also gave a TGI [15] greater than 100 µM, a TGI [16] greater than 100 µM and a TGI [17] greater than 100 µM. It also gave a TGI [18] greater than 100 µM, a TGI [19] greater than 100 µM and a TGI [20] greater than 100 µM. The TGI [50] was greater than 100 µM, the TGI [21] was greater than 100 µM and the TGI [22] was greater than 100 µM. For the same molecule, the TGI [51] was greater than 100 µM, the TGI [24] was greater than 100 µM and the TGI [52] was greater than 100 µM. The TGI [25] was greater than 100 µM, the TGI [53] was greater than 100 µM and the TGI [26] was greater than 100 µM. It also gave a TGI [27] greater than 100 µM, a TGI [28] greater than 100 µM and a TGI [29] greater than 100 µM. The TGI [59] was greater than 100 µM, the TGI [54] was greater than 100 µM and the TGI [30] was greater than 100 µM. It also gave a TGI [31] greater than 100 µM, a TGI [32] greater than 100 µM and a TGI [33] greater than 100 µM. The TGI [34] was greater than 100 µM, the TGI [55] was greater than 100 µM and the TGI [56] was greater than 100 µM. It also gave a TGI [35] greater than 100 µM, a TGI [36] greater than 100 µM and a TGI [57] greater than 100 µM. For the same molecule, the TGI [37] was greater than 100 µM, the TGI [38] was greater than 100 µM and the TGI [39] was greater than 100 µM. It also gave a TGI [40] greater than 100 µM, a TGI [41] greater than 100 µM and a TGI [43] greater than 100 µM. It also gave a TGI [44] greater than 100 µM, a TGI [45] greater than 100 µM and a TGI [46] greater than 100 µM. The TGI [47] was greater than 100 µM, the TGI [48] was greater than 100 µM and the TGI [58] was greater than 100 µM.
